Among the data in US12398155B2, “Thienopyridinone compounds” (Janssen Pharmaceutica NV, priority 2019, dated 2025) are IC50 and GI50 values, retold here.

What all share (assay type): cell-based
The subject of assay [1] is NIH/3T3 cells transfected with control vector. In words: NIH/3T3 mock cell proliferation assay (counter assay, general toxicity). The note with it: Mus musculus, NIH3T3; 72-hr incubation, CellTiter Glo; read-out: NIH/3T3 MOCK CTG. The method, then:
NIH/3T3 Mock Cell Proliferation Assay
(§1) In day 1, 90 μL of cell suspension (NIH/3T3 cells transfected with the same control vector as in the above two proliferation assays) (total 30,000 cells per well in growth medium (DMEM containing 1% Glutamax, 10% FBS and 1% Pen/Strep)) was seeded in a 96-well plate and then incubated overnight at 37° C. and 5% CO2. In day 2, 10 μL of growth medium containing 10-fold stock solution of testing compound was added into cell cultures (9 dose points with 3× serial dilution, starting with 30 μM, 0.3% DMSO final). After 72-hr incubation at 37° C. and 5% CO2, in day 5 a volume of 50 μL CellTiter Glo (CTG) reagent was added into cell-containing 96-well plate and the plate was incubated at room temperature for 10 minutes before RLUs (relative light unit) were measured on a microplate reader with luminescence detection module. The RLU value was normalized to survival % and concentration-response curve was plotted using Prism to calculate IC50 (M), pIC50 (−log IC50) and HillSlope value.
A general note: Cellular ATP, detected with luciferase, serves as a proxy for viable cell number.

Assay [2] relates to NIH/3T3 cells overexpressing FGFR3 V555M-TACC3 fusion protein. In words: NIH/3T3 FGFR3 V555M-TACC3 cellular phospho-ERK assay (in vitro PD assay). The note with it: Mus musculus, NIH3T3; 1-hr incubation, AlphaLISA p-ERK1/2; read-out: NIH/3T3 FGFR3 V555M-TACC3 pERK. On the procedure: NIH/3T3 FGFR3 V555M-TACC3 Cellular Phospho-ERK Assay (In Vitro PD Assay)
50 μL of cell suspension (NIH/3T3 cells overexpressing FGFR3 V555M-TACC3 fusion protein) (total 10,000 cells per well in growth medium (DMEM containing 1% Glutamax, 10% FBS and 1% Pen/Strep)) was seeded in a 384-well plate. After overnight incubation at 37° C. and 5% CO2, 5.5 μL of growth medium containing 10× testing compound was added into cell cultures (10 dose points with 4× serial dilution, starting with 10 μM, 0.1% DMSO final). After 1-hr incubation at 37° C. and 5% CO2, the medium was depleted and AlphaLISA SureFire Ultra p-ERKI1/2 (Thr202/Tyr204) Assay Kit (from PerkinElmer) was applied for phospho-ERK level detection according to the kit instructions. The RFUs (relative fluorescence units were measured on EnVision microplate reader (ex. 680 nm, em. 615 nm) and concentration-response curve was plotted using Prism to calculate IC50 (M), pIC50 (−log IC50) and HillSlope value.

Assay [3] has as its target T1, NIH/3T3 cells overexpressing FGFR3 WT-TACC3 fusion protein (Homo sapiens, UniProt P22607).
T1 construct: NIH/3T3 FGFR3 WT-TACC3 CTG; other: 72-hr incubation, CellTiter Glo; fused on or other part: C-terminal part of TACC3 (coiled-coil) fused behind the FGFR3 kinase domain; Q9Y6A5 (Transforming acidic coiled-coil-containing protein 3)
In words: NIH/3T3 FGFR3 WT-TACC3 cell proliferation assay. Particulars: 72-hr incubation, CellTiter Glo; read-out: NIH/3T3 FGFR3 WT-TACC3 CTG. On the procedure: NIH/3T3 FGFR3 WT-TACC3 Cell Proliferation Assay
as §1, with “cells overexpressing FGFR3 WT-TACC3 fusion protein)” for “cells transfected with the same control vector as in the above two proliferation assays)”, “with 4×” for “with 3×”, “with 10” for “with 30”, “μM, 0.1%” for “μM, 0.3%”

T1 sequence (P22607 whole entry, change not shown, the tested form may be a part): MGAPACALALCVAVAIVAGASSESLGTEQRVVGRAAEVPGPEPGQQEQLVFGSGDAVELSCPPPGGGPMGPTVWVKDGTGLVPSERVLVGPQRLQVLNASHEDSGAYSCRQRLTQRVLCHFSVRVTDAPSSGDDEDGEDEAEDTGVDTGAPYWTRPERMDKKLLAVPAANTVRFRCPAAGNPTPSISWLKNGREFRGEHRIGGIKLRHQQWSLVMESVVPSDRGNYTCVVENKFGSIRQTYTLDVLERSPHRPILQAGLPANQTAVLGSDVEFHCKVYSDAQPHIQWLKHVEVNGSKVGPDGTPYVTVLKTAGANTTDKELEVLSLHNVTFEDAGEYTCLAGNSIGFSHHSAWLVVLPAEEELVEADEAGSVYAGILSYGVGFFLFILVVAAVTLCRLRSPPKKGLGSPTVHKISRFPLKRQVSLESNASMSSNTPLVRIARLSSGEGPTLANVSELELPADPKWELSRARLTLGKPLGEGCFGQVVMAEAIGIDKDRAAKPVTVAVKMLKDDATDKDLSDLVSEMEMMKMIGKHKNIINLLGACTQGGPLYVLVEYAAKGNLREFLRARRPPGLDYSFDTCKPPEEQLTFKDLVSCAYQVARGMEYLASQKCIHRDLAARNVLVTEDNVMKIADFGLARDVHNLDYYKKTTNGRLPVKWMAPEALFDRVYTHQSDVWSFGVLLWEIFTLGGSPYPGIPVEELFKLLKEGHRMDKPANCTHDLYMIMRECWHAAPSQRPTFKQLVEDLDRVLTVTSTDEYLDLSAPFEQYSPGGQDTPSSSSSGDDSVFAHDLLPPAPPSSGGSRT

For the compound `C[C@H](Nc1c(-c2nc3cnc(N4CCOCC4)cc3[nH]2)c(=O)[nH]c2ccsc12)c1ncccn1` [Compound 2, (S)-6-(6-Morpholino-1H-imidazo[4,5-c]pyridin-2-yl)-7-((1-(pyrimidin-2-yl)ethyl)amino)thieno[3,2-b]pyridin-5(4H)-one], the IC50 is 891 nM in assay [1] and 1.6 nM in assay [2]. Moreover, the GI50 in assay [3] is 0.85 nM.
